Columns and labels:
[1] = Liver microsomal stability, mouse; assay type: in vitro ADME
[2] = Liver microsomal stability, human; assay type: in vitro ADME
[3] = Liver microsomal stability, rat; assay type: in vitro ADME
[4] = Liver microsomal stability, monkey; assay type: in vitro ADME, cynomolgus monkey; settings: for half-life: cynomolgus monkey
[5] = biological target: CYP2C19 (Homo sapiens, UniProt P33261); experiment: CYP inhibition 2C19; assay type: in vitro ADME
[6] = Plasma protein binding, rat; assay type: in vitro ADME
[7] = biological target: CYP2C9 (Homo sapiens, UniProt P11712); experiment: CYP inhibition 2C9; assay type: in vitro ADME
Chain of CYP2C9 (P11712 whole entry): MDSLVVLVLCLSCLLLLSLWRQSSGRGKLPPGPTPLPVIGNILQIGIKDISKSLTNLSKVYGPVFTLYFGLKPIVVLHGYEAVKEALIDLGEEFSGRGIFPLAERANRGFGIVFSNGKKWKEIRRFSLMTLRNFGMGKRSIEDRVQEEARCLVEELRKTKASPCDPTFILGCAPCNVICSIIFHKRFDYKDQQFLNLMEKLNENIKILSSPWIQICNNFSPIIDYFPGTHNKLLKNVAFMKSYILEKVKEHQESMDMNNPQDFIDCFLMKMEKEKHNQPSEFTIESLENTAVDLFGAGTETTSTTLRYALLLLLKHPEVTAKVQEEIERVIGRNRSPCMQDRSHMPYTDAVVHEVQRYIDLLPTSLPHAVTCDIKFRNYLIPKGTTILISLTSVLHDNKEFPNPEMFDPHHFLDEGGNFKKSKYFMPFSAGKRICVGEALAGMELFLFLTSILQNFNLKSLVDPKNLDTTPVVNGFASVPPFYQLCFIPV

[8] = Kinetic solubility in PBS; assay type: physicochemical; settings: pH 7.4
[9] = Plasma protein binding, human; assay type: in vitro ADME
[10] = biological target: CYP3A4 (Homo sapiens, UniProt P08684); experiment: CYP inhibition 3A4; assay type: in vitro ADME
Chain of CYP3A4 (P08684 whole entry): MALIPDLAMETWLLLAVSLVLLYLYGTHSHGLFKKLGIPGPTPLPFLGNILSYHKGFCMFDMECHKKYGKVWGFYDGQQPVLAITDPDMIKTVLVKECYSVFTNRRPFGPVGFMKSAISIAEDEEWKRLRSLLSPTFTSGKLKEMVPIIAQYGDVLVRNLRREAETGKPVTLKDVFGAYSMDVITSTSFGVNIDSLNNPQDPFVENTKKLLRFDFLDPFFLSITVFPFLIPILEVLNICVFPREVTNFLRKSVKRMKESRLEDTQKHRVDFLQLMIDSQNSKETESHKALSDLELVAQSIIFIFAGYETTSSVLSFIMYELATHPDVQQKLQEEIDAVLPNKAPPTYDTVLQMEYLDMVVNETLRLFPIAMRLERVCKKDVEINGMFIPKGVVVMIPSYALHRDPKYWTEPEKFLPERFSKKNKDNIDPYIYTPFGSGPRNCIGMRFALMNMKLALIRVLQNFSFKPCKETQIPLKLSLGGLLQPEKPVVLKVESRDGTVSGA

[11] = biological target: CYP2D6 (Homo sapiens, UniProt P10635); experiment: CYP inhibition 2D6; assay type: in vitro ADME
Chain of CYP2D6 (P10635 whole entry): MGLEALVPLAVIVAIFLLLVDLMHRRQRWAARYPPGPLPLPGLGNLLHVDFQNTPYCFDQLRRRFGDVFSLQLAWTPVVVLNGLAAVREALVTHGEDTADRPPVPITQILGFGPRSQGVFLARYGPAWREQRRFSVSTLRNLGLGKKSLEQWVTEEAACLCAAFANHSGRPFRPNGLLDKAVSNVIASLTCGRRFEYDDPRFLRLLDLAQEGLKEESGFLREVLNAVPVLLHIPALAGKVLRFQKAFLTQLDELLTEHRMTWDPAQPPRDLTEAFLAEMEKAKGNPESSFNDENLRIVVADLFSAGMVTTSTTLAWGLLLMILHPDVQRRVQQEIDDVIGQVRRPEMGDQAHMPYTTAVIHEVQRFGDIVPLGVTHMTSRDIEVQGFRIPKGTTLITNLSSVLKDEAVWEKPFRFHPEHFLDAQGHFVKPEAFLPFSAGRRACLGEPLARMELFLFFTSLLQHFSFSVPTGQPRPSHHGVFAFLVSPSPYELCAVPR

[12] = system: ATTR-CM; settings: 28 day phase II, cited from earlier work
[13] = system: serum RBP4 levels; design: species or system mice; settings: mouse, in vivo, po
[14] = system: TTR; settings: ITC; cited from earlier work
[15] = system: hereditary ATTR; settings: patients with hereditary ATTR; cited from earlier work
[16] = system: ATTR-CM; settings: 441 ATTR-CM patients, compared to placebo; cited from earlier work

Chain of CYP2C19 (P33261 whole entry): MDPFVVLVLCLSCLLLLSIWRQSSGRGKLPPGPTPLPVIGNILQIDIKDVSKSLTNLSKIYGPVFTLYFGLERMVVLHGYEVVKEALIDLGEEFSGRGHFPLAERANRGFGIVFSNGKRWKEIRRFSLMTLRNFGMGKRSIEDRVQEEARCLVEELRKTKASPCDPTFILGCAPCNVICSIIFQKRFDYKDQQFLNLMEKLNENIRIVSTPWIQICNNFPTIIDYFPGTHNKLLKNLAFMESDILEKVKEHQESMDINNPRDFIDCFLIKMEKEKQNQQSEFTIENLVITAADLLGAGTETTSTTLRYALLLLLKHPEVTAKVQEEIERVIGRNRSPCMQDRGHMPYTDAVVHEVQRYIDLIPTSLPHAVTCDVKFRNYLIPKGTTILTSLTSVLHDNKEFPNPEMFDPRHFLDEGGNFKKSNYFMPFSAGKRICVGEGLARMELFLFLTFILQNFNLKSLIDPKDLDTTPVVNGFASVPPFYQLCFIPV

Row | SMILES | half-life ([1]; microsomes) | half-life ([2]; microsomes) | half-life ([3]; microsomes) | half-life ([4]; microsomes) | half-life ([1]; liver microsomes) | half-life ([2]; liver microsomes) | half-life ([3]; liver microsomes) | half-life ([4]; liver microsomes) | also measured
1 | Cc1ccc(C(=O)O)cc1N1CCN(c2c(C)n[nH]c2C)CC1 [20c, 3-(4-(3,5-dimethyl-1H-pyrazol-4-yl)piperazin-1-yl)-4-methylbenzoic acid] | > 1 h | > 1 h | > 1 h | > 1 h | – | – | – | – | –
2 | COc1ccc(C(=O)O)cc1N1CCN(c2c(C)n[nH]c2C)CC1 [20b, 3-(4-(3,5-dimethyl-1H-pyrazol-4-yl)piperazin-1-yl)-4-methoxybenzoic acid] | – | – | – | – | > 1 h | > 1 h | > 1 h | > 1 h | inhibition at 10 µM [5]: 4.2%; fraction unbound [6]: 0.22; microsomal CLint ([1]; liver microsomes): < 23.1 µL/min/mg; remaining at 0.5 h ([1]; liver microsomes): 102%; inhibition at 10 µM [7]: 1.4%; solubility [8]: ≥ 200 µM; fraction unbound [9]: 0.25; inhibition at 10 µM [10]: 19.6%; microsomal CLint ([2]; liver microsomes): < 23.1 µL/min/mg; remaining at 0.5 h ([2]; liver microsomes): 108%; inhibition at 10 µM [11]: 8%; microsomal CLint ([3]; liver microsomes): < 23.1 µL/min/mg; remaining at 0.5 h ([3]; liver microsomes): 101%; microsomal CLint ([4]; monkey, liver microsomes): < 23.1 µL/min/mg; remaining at 0.5 h ([4]; monkey, liver microsomes): 102%
3 | Cc1n[nH]c(C)c1N1CCN(c2cc(C(=O)O)ccc2C(F)(F)F)CC1 [20d, 3-(4-(3,5-dimethyl-1H-pyrazol-4-yl)piperazin-1-yl)-4-(trifluoromethyl)benzoic acid] | > 1 h | > 1 h | > 1 h | > 1 h | – | – | – | – | –
4 | Cc1n[nH]c(C)c1CCCOc1cc(C(=O)O)ccc1F [AG10, acoramidis] | – | – | – | – | – | – | – | – | stabilization of TTR ([12]; ATTR-CM patients with symptomatic chronic heart failure): near-complete stabilization; tolerability [12]: well tolerated
5 | Cc1n[nH]c(C)c1N1CCN(c2cc(C(=O)O)ccc2F)CC1 [compound 14, 3-(4-(3,5-dimethyl-1H-pyrazol-4-yl)piperazin-1-yl)-4-fluorobenzoic acid] | > 1 h | > 1 h | > 1 h | > 1 h | – | – | – | – | changes in serum TTR levels [13]: No changes
6 | O=C(O)c1ccc2nc(-c3cc(Cl)cc(Cl)c3)oc2c1 [tafamidis] | – | – | – | – | – | – | – | – | ΔH [14]: -5.00 kcal/mol; patients who do not respond [15]: Approximately 30%; reduction of the rate of cardiovascular-related hospitalizations [16]: 32%; reduction of the risk of death [16]: 30%
7 | Cc1n[nH]c(C)c1N1CCN(c2cc(-c3nn[nH]n3)ccc2F)CC1 [compound 54, 1-(3,5-dimethyl-1H-pyrazol-4-yl)-4-(2-fluoro-5-(2H-tetrazol-5-yl)phenyl)piperazine] | < 1 h | 1.26 h | < 1 h | < 1 h | – | – | – | – | microsomal CLint ([2]; microsomes): 18.4 µL/min/mg
8 | Cc1n[nH]c(C)c1N1CCN(c2cc(C(=O)O)ccc2Cl)CC1 [20e, 4-chloro-3-(4-(3,5-dimethyl-1H-pyrazol-4-yl)piperazin-1-yl)benzoic acid] | – | – | – | – | > 1 h | > 1 h | > 1 h | > 1 h | –
9 | Cc1cc(F)c(N2CCN(c3c(C)n[nH]c3C)CC2)cc1C(=O)O [20i, 5-(4-(3,5-dimethyl-1H-pyrazol-4-yl)piperazin-1-yl)-4-fluoro-2-methylbenzoic acid] | – | – | – | – | > 1 h | > 1 h | > 1 h | > 1 h | –

— PMC9578043 (Journal of medicinal chemistry, 2021)
